Results on three molecules are retold here after US20260232827A1, “ANTIBODY-DRUG CONJUGATES TARGETING NAPI2B AND METHODS OF USE” (Zymeworks BC Inc., priority 2023, published 2026).

Where two headings read alike, the source gives them in different places.

For assay [1], the system named is human erythroid progenitors. Kind of assay: Colony-forming unit (CFU) assay, target-independent cytotoxicity. The assay is classed as cell-based. The settings on record: 336 h. An excerpt:
(§1) The non-specific (target-independent) cytotoxicity of ADCs in human erythroid and myeloid progenitors is of interest as, in the context of off-target toxicities, uptake and trafficking of intact ADCs into normal cells can occur by different mechanisms following administration of ADC in vivo, including target-dependent, for example, NaPi2b-dependent internalization, or target-independent mechanisms, for example, FcγR-dependent internalization or non-specific endocytosis (Mahalingaiah et al., Pharmacol Ther. 2019 August; 200:110-125). Profiling the in vitro target-independent cytotoxicity of ADCs to erythroid and myeloid progenitors may further understanding of their interactions in vivo.
(§2) Briefly, 20,000 human bone marrow-isolated HSC CD34+ were seeded in a semi-solid methylcellulose-based media formulation containing recombinant human interleukin-3 (rhIL-3, 10 ng/mL), rh granulocyte-macrophage-colony-stimulating factor (rhGM-CSF, 10 ng/mL), rh stem cell factor (rhSCF, 50 ng/mL) and Erythropoietin (Epo, 3 U/mL), to induce differentiation into clonogenic progenitors of human erythroid (CFU-erythroid CFU-E, burst-forming unit-erythroid BFU-E), granulocyte-monocyte (CFU-granulocyte-macrophage CFU-GM) and multipotential (CFU-granulocyte-erythroid-monocyte-megakaryocyte CFU-GEMM). […] After treatment, erythroid and myeloid colonies were assessed microscopically and scored. The colonies were divided into the following categories based on size and morphology: CFU-E, BFU-E, CFU-GM and CFU-GEMM. Percent survivability values were calculated based on the number of colonies after treatment over the number of colonies after solvent controls treatment and plotted against test article concentration using GraphPad Prism 9 software (GraphPad Software, La Jolla, CA). IC50 values were calculated based on a non-linear regression log(inhibitor) versus response, variable slope (four parameters) by GraphPad Prism 9.

In assay [2] the test system is human myeloid progenitors. The description is as above. Format: cell-based. The settings on record: 336 h.
Description: as §1, §2

For assay [3], the system named is Construct 1 (chimeric human NaPi2b, region 239-259). Briefly: Binding region mapping, flow cytometry on transfected HEK293-6e cells. As to conditions: 24 hours at 4° C. An excerpt: (§3) NaPi2b constructs containing deletions in the main extracellular loop of human NaPi2b, as well as chimeric NaPi2b/NaPi2c constructs concerning this main loop, were generated.
(§4) As a complementary strategy, two additional constructs were designed in which the relevant region of the main loop was deleted such as to mimic NaPi2c/NaPi2a main extracellular loop (Constructs 6-7 in Table 52.1). Clones were generated at GenScript Biotech (Piscataway, NJ).
(§5) Constructs were expressed in HEK293-6e cells as follows. Cells were maintained under standard culture conditions (37° C./5% CO2) with shaking at 110 rpm for suspension and cultured in FreeStyle™ 293 Expression Medium (Thermo Fisher Scientific, Waltham, MA) supplemented with 1% fetal bovine serum (Thermo Fisher Scientific, Waltham, MA) and 1× Penicillin-Streptomycin (Thermo Fisher Scientific, Waltham, MA). Cells were transfected with clones expressing the constructs listed in Table 52.1, at 1 μg of DNA per 1 million cells, using 293Fectin™ Transfection Reagent (Thermo Fisher Scientific, Waltham, MA) and Opti-MEM™ I Reduced Serum Medium (Thermo Fisher Scientific, Waltham, MA), and incubated for 24 hours under standard culture conditions (37° C./5% CO2/110 rpm). Following transfection, cells were seeded at 50,000 cells/well in conical-bottom 96-well plates and treated with a serial dilution of test antibody for 24 hours at 4° C. to prevent internalization. Cells were treated with final concentrations of all humanized antibodies of 200, 20, or 2 nM. Cells were treated with final concentrations of the reference anti-NaPi2a rabbit antibody of 50, 5, or 0.5 nM. […] Following incubation and washing, fluorescence was detected by flow cytometry on a BD LSRFortessa™ Cell Analyzer (BD Biosciences, Franklin Lake, NJ) with 1,000 minimum events collected per well. […] Background-subtracted AF647 Mean Fluorescence Intensity (MFI) values were calculated by subtracting the average MFI of three technical replicates of unstained (no primary antibody) cells.

The test system of assay [4] is Construct 2 (chimeric human NaPi2b, region 280-301). Described as above. The settings on record: 24 hours at 4° C.
Description: as §3, §4, §5

In assay [5] the test system is Construct 4 (chimeric human NaPi2b, region 341-358). The description is as above. As to conditions: antibody 20.0 nM, 24 hours at 4° C.
Description: as §3, §4, §5

Assay [6] has as its target T1, human NaPi2b (Homo sapiens, UniProt O95436).
T1 construct: Full length human NaPi2b; host or cells: HEK293-6e
T1 sequence (O95436 1-690): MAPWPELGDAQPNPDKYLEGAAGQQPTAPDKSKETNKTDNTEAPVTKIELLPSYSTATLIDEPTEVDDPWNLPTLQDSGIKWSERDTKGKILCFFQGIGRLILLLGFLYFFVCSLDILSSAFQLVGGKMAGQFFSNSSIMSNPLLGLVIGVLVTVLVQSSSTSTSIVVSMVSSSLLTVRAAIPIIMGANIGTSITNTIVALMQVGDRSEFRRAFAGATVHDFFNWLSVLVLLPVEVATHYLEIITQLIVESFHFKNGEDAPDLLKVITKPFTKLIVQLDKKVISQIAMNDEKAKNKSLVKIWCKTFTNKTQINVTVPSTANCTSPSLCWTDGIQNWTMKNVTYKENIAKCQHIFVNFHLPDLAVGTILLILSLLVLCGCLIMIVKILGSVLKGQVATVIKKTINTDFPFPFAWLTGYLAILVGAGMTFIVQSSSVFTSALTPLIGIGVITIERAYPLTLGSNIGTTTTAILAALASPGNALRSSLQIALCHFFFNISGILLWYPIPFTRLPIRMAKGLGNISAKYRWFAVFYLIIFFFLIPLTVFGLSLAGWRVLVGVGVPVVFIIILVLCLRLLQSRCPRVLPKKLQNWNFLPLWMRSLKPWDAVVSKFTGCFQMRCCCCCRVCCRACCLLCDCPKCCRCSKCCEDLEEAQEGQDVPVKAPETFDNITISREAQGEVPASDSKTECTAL
Kind of assay: Competition binding (epitope binning) by flow cytometry, transfected HEK293-6e cells. As to conditions: unlabeled competitor 100 μg/mL, detection antibody 1 μg/mL. The protocol: Binding was assessed by flow cytometry using HEK293-6e cells as described below.
HEK293-6e cells were transfected for ~24 hours to transiently express human NaPi2b (1 μg of pTT5-NaPi2b per 1 million cells) or transfected with GFP (ATUM, Menlo Park, CA; pD2610-v23, also 1 μg of DNA per 1 million cells). Following transfection, human NaPi2b-expressing HEK296-6e cells and transfected GFP-expressing HEK296-6e cells were mixed at 4:1 ratio. Each well of a V-bottom 96-well plate was seeded with 100,000 cells of the mixture and incubated with 100 μg/mL of unlabeled competitor anti-NaPi2b antibody for an hour on ice. Post incubation, cells were washed and stained with 1 μg/mL of AF647-conjugated anti-NaPi2b detection antibodies for an hour on ice. Following staining and washing, fluorescence was detected by flow cytometry on a BD LSRFortessa™ Cell Analyzer (BD Biosciences, Franklin Lake, NJ) with 10,000 minimum events collected per well. […] Percentage inhibition was calculated using the following formula: […]

For `CC[C@@]1(O)C(=O)OCc2c1cc1n(c2=O)Cc2c-1nc1cc(F)c(C)cc1c2CNC(=O)OCCO` [Compound 139, 2-hydroxyethyl (S)-((4-ethyl-8-fluoro-4-hydroxy-9-methyl-3,14-dioxo-3,4,12,14-tetrahydro-1H-pyrano[3′,4′:6,7]indolizino[1,2-b]quinolin-11-yl)methyl)carbamate], the IC50 was found to be 1.32 nM in assay [1] (14 days incubation, read-out: Human IC50, Erythroid progenitors); 1.32 nM in assay [1] (14 days, read-out: IC50, erythroid progenitors); 1.75 nM in assay [2] (14 days incubation, read-out: Human IC50, Myeloid progenitors); 1.75 nM in assay [2] (14 days, read-out: IC50, myeloid progenitors).
On to lifastuzumab [lifastuzumab (v18993)], for which the “Background-Subtracted AF647 Mean Fluorescence Intensity” value in assay [3] (antibody 2.0 nM) was 1,232; in assay [3] (antibody 20.0 nM), 1,697; in assay [3] (antibody 200.0 nM) it was 1,508; in assay [4] (antibody 20.0 nM), 1,198; in assay [4] (antibody 200.0 nM) it was 1,232; in assay [5], 1,049.
On to Palivizumab [v16955 (negative control)], for which, in assay [6], the “% Inhibition vs. irrelevant mAb, labeled detection antibody v16955 (negative control)” value amounted to 0%; the “% Inhibition vs. irrelevant mAb, labeled detection antibody v18992 (MX35)” value is reported as 0%; the “% Inhibition vs. irrelevant mAb, labeled detection antibody v18993 (lifastuzumab)” value is 0%; the “% Inhibition vs. irrelevant mAb, labeled detection antibody v23855” value stood at 0%.
